Measurements published in US12503475B2 (Centessa Pharmaceuticals (UK) Limited, priority 2020, dated 2025).

Biological target: T1, human orexin type 2 receptor (hOX2R) (Homo sapiens, UniProt O43614)
T1 construct: expressed in transfected cells
T1 sequence (O43614 1-444): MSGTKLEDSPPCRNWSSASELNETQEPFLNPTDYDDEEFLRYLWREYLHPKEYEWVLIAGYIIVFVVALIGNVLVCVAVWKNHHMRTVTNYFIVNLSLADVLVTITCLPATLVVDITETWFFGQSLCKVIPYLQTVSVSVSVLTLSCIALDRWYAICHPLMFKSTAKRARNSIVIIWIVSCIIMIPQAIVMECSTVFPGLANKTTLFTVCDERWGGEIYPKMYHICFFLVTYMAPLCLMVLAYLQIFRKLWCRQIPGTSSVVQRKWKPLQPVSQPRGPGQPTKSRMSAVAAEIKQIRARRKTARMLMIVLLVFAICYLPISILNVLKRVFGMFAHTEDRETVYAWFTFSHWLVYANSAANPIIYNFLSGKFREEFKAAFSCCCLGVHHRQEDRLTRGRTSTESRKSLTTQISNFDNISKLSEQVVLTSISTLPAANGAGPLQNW
Experiment: Measurement of orexin type 2 receptor agonist activity (FLIPR calcium fluorescence)
Type: cell-based
Details: CHO cells expressing hOX2R, FLIPR calcium fluorescence; for EC50: read-out: hOx2 pEC50 (converted); for Emax: CHO, read-out: hOx2 Emax (%)
Outline: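 Agonism was read as fluorescence in cells stably expressing human OX2R. E. is the response at 10 μM relative to orexin A as full agonist (100%).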

Row | EC50 | Emax | Compound
1 | 1 to 10 nM | 90 to 100% | C[C@@]1(C(=O)N2CC3(CC3)[C@H](NS(=O)(=O)CF)[C@@H]2Cc2cccc(-c3ccccc3)c2F)CCO1 [Compound 203, 1-fluoro-N-((6S,7S)-6-((2-fluoro-[1,1′-biphenyl]-3-yl)methyl)-5-((S)-2-methyloxetane-2-carbonyl)-5-azaspiro[2.4]heptan-7-yl)methanesulfonamide]
2 | 10 to 100 nM | 90 to 100% | CS(=O)(=O)N[C@@H]1[C@H](Cc2cccc(-c3cccc(F)c3)c2)N(C(=O)[C@H]2CCO2)CC12CC2 [Compound 305]
3 | 1 to 10 nM | 90 to 100% | CS(=O)(=O)N[C@@H]1[C@H](Cc2cccc(-c3ccccc3)c2F)N(C(=O)[C@H](O)C(F)(F)F)CC12CC2 [Compound 56, N-((6S,7S)-6-((2-fluoro-[1,1′-biphenyl]-3-yl)methyl)-5-((S)-3,3,3-trifluoro-2-hydroxypropanoyl)-5-azaspiro[2.4]heptan-7-yl)methanesulfonamide]
4 | 1 to 10 nM | 90 to 100% | CN(CC1CC1)C(=O)N1CC2(CC2)[C@H](NS(C)(=O)=O)[C@@H]1Cc1cccc(-c2ccccc2)c1F [Compound 332, (6S,7S)-N-(cyclopropylmethyl)-6-((2-fluoro-[1,1′-biphenyl]-3-yl)methyl)-N-methyl-7-(methylsulfonamido)-5-azaspiro[2.4]heptane-5-carboxamide]
5 | 1 to 10 nM | 90 to 100% | O=C(NCC(F)F)N1CC2(CC2)[C@H](NS(=O)(=O)C(F)F)[C@@H]1Cc1cc(F)cc(-c2ccccc2)c1F [Compound 389, (6S,7S)-6-((2,5-difluoro-[1,1′-biphenyl]-3-yl)methyl)-N-(2,2-difluoroethyl)-7-((difluoromethyl)sulfonamido)-5-azaspiro[2.4]heptane-5-carboxamide]
6 | 1 to 10 nM | 80 to 90% | [2H]C([2H])([2H])Oc1c(C[C@H]2[C@@H](NS(=O)(=O)CF)C3(CC3)CN2C(=O)NC([2H])([2H])C([2H])([2H])[2H])cccc1-c1ccccc1 [Compound 397, (6S,7S)-N-(ethyl-d5)-7-((fluoromethyl)sulfonamido)-6-((2-(methoxy-d3)-[1,1′-biphenyl]-3-yl)methyl)-5-azaspiro[2.4]heptane-5-carboxamide]
7 | 10 to 100 nM | 90 to 100% | O=C([C@H]1CCO1)N1CC2(CC2)[C@H](NS(=O)(=O)c2c[nH]cn2)[C@@H]1Cc1cccc(-c2ccccc2)c1 [Compound 75, N-((6S,7S)-6-([1,1′-biphenyl]-3-ylmethyl)-5-((R)-oxetane-2-carbonyl)-5-azaspiro[2.4]heptan-7-yl)-1H-imidazole-4-sulfonamide]
8 | 1 to 10 nM | 90 to 100% | O=C(NCC(F)F)N1CC2(CC2)[C@H](NS(=O)(=O)CF)[C@@H]1Cc1cc(F)cc(-c2ccccc2)c1F [Compound 191, (6S,7S)-6-((2,5-difluoro-[1,1′-biphenyl]-3-yl)methyl)-N-(2,2-difluoroethyl)-7-((fluoromethyl)sulfonamido)-5-azaspiro[2.4]heptane-5-carboxamide]
9 | 0.0794 to 1 nM | 90 to 100% | [2H]C([2H])([2H])c1cccc(-c2cccc(C[C@H]3[C@@H](NS(=O)(=O)C(F)F)C4(CC4)CN3C(=O)[C@H]3CCO3)c2F)c1 [Compound 199, 1,1-difluoro-N-((6S,7S)-6-((2-fluoro-3′-(methyl-d3)-[1,1′-biphenyl]-3-yl)methyl)-5-((R)-oxetane-2-carbonyl)-5-azaspiro[2.4]heptan-7-yl)methanesulfonamide]
10 | 1 to 10 nM | 90 to 100% | CO[C@@H](C)CNC(=O)N1CC2(CC2)[C@H](NS(C)(=O)=O)[C@@H]1Cc1cccc(-c2ccccc2)c1F [Compound 336, (6S,7S)-6-((2-fluoro-[1,1′-biphenyl]-3-yl)methyl)-N-((S)-2-methoxypropyl)-7-(methylsulfonamido)-5-azaspiro[2.4]heptane-5-carboxamide]
11 | 10 to 100 nM | 90 to 100% | N#CCS(=O)(=O)N[C@@H]1[C@H](Cc2cccc(-c3ccccc3)c2)N(C(=O)[C@H]2CCO2)CC12CC2 [Compound 73]
12 | 0.0794 to 1 nM | 90 to 100% | C[C@@H](F)C(=O)N1CC2(CC2)[C@H](NS(=O)(=O)C(F)F)[C@@H]1Cc1cccc(-c2cc(F)cc(F)c2)c1F [Compound 378, 1,1-difluoro-N-((6S,7S)-5-((R)-2-fluoropropanoyl)-6-((2,3′,5′-trifluoro-[1,1′-biphenyl]-3-yl)methyl)-5-azaspiro[2.4]heptan-7-yl)methanesulfonamide]
13 | 100 to 1000 nM | 40 to 50% | CC(F)(F)C(=O)N1CC2(CC2)C(NS(C)(=O)=O)C1Cc1cccc(-c2ccccc2)c1 (racemic) [Compound 9, N-(6-([1,1′-biphenyl]-3-ylmethyl)-5-(2,2-difluoropropanoyl)-5-azaspiro[2.4]heptan-7-yl)methanesulfonamide]
14 | 1 to 10 nM | 90 to 100% | C[C@H](F)CNC(=O)N1CC2(CC2)[C@H](NS(=O)(=O)CF)[C@@H]1Cc1cccc(-c2ccccc2)c1F [Compound 205]
15 | 1 to 10 nM | 90 to 100% | CN(C)S(=O)(=O)N[C@@H]1[C@H](Cc2cc(F)cc(-c3ccccc3)c2F)N(C(=O)[C@H](O)CF)CC12CC2 [Compound 353]
16 | 1 to 10 nM | 90 to 100% | O=C(NCC(F)(F)F)N1CC2(CC2)[C@H](NS(=O)(=O)CF)[C@@H]1Cc1cccc(-c2ccccc2)c1F [Compound 211, (6S,7S)-6-((2-fluoro-[1,1′-biphenyl]-3-yl)methyl)-7-((fluoromethyl)sulfonamido)-N-(2,2,2-trifluoroethyl)-5-azaspiro[2.4]heptane-5-carboxamide]
17 | 1 to 10 nM | 90 to 100% | COC1CN(C(=O)N2CC3(CC3)[C@H](NS(=O)(=O)CF)[C@@H]2Cc2cccc(-c3cc(F)cc(F)c3)c2F)C1 [Compound 402, 1-fluoro-N-((6S,7S)-5-(3-methoxyazetidine-1-carbonyl)-6-((2,3′,5′-trifluoro-[1,1′-biphenyl]-3-yl)methyl)-5-azaspiro[2.4]heptan-7-yl)methanesulfonamide]
18 | 1 to 10 nM | 80 to 90% | CCNC(=O)N1CC2(CC2)C(NS(C)(=O)=O)C1Cc1cccc(-c2ccccc2)c1OC (racemic) [Compound 44, N-ethyl-6-((2-methoxy-[1,1′-biphenyl]-3-yl)methyl)-7-(methylsulfonamido)-5-azaspiro[2.4]heptane-5-carboxamide]
19 | 1 to 10 nM | 90 to 100% | N#C[C@@]1(C(=O)N2CC3(CC3)[C@H](NS(=O)(=O)CF)[C@@H]2Cc2cccc(-c3ccccc3)c2F)CCO1 (single isomer, unassigned) [Compound 225]
20 | 1 to 10 nM | 90 to 100% | O=C([C@H](O)C(F)F)N1CC2(CC2)[C@H](NS(=O)(=O)CF)[C@@H]1Cc1cc(F)cc(-c2ccccc2)c1F [Compound 360, N-((6S,7S)-5-((S)-3,3-difluoro-2-hydroxypropanoyl)-6-((2,5-difluoro-[1,1′-biphenyl]-3-yl)methyl)-5-azaspiro[2.4]heptan-7-yl)-1-fluoromethanesulfonamide]
21 | 10 to 100 nM | 90 to 100% | COCCNC(=O)N1CC2(CC2)[C@H](NS(C)(=O)=O)[C@@H]1Cc1cccc(-c2ccccc2)c1F (racemic) [Compound 306, 6-((2-fluoro-[1,1′-biphenyl]-3-yl)methyl)-N-(2-methoxyethyl)-7-(methylsulfonamido)-5-azaspiro[2.4]heptane-5-carboxamide]
